According to patent US9328122B2, “7-substituted Hanfangichin B derivative, and preparation method and use thereof” (HANGZHOU BENSHENG PHARMACEUTICAL CO., LTD., priority 2012, dated 2016):
Values after ≈ are worked out from the molar mass of the structure shown.

How the values were obtained:
tumor = test: Antitumor activity compared with fangchinoline, overall statement; type: cell-based; conditions: tumor type not specified
[1] = tested on: Jurkat (acute lymphoblastic leukemia) cells; test: MTT cell growth inhibition, leukemia cells; type: cell-based, human; conditions: Homo sapiens, Jurkat, 72 h, MTT
Excerpt: (§1) Leukemia cell lines: leukemia cell lines: K562adr (drug-resistant, chronic myeloid leukemia, CML), NB4 (acute promyelocytic leukemia, AML), Kasumi-1 (acute myeloid leukemia M2 type, AML-M2), Jurkat (acute lymphoblastic leukemia, ALL), all of which were donated by Cancer Research Institute of Zhejiang University, China; and H9 (acute lymphoblastic leukemia, ALL), which was purchased from China Center for Type Culture Collection.
(§2) Reagents: The standard sample of fangchinoline (FAN) was purchased from Ci Yuan Biotechnology Co., Ltd., Shaanxi, China; and the 7-substituted fangchinoline derivatives according to the present invention.
(§3) 6000 well-growing leukemia cells were obtained and inoculated into wells of a 96-well cell culture plate. The culture medium was a RPMI-1640 cell culture medium containing 10% fetal bovine serum. After adding the 7-substituted fangchinoline derivatives of different concentrations the next day and mixing uniformly, the plate was placed in a carbon dioxide cell incubator (5% CO2) at 37° C. and incubating for 72 hours. Then the viable cell concentration was determined by the MTT method.

[2] = tested on: H9 (acute lymphoblastic leukemia) cells; test: MTT cell growth inhibition, leukemia cells; type: cell-based, human; conditions: Homo sapiens, H9, 72 h, MTT
Excerpt: as §1, §2, §3

[3] = tested on: Kasumi-1 (acute myeloid leukemia M2 type) cells; test: MTT cell growth inhibition, leukemia cells; type: cell-based, human
Excerpt: as §1, §2, §3

[4] = tested on: NB4 (acute promyelocytic leukemia) cells; test: MTT cell growth inhibition, leukemia cells; type: cell-based; conditions: Homo sapiens, NB4, 72 h, MTT
Excerpt: as §1, §2, §3

[5] = tested on: K562/ADR (K562adr, drug-resistant chronic myeloid leukemia) cells; test: MTT cell growth inhibition, leukemia cells; type: cell-based; conditions: Homo sapiens, K562/ADR, 72 h, MTT
Excerpt: as §1, §2, §3

[6] = tested on: CaEs-17 (esophageal cancer) cells; test: MTT cell growth inhibition, solid tumor cells; type: cell-based, human; conditions: Homo sapiens, CaEs17, CaEs-17, 72 h, MTT
Excerpt: (§4) Hep-2 (laryngeal carcinoma), A549 (human lung cancer), CaES-17 (esophageal cancer cell), PC-3 (prostate cancer), CNE (nasopharyngeal carcinoma cell) and SK-OV-3 (ovarian cancer cell), all of which were purchased from China Center For Type Culture Collection; RKO (human colon adenocarcinoma cell), MGC-803 (human gastric cancer cell), MG-63 (osteosarcoma), and U87-MG (malignant glioma cell), all of which were purchased from Fuxiang Bio-tech Co. Ltd., Shanghai, China; PANC-1 (pancreatic cancer), Becap37 (human breast cancer cell), Hela (human cervical cancer cell) and Hep G2 (human liver cancer cell), all of which were donated by Cancer Research Institute of Zhejiang University, China.
as §3, with “human solid tumor” for “leukemia”, “DMEM High Glucose” for “a RPMI-1640”, “serum. The plate was placed in a carbon dioxide cell incubator (5% CO2) at 37° C. and incubated for 24 hours.” for “serum.”, “added with” for “adding the”, “concentration” for “concentrations the next day”, “incubated” for “incubating”

[7] = tested on: PANC-1 (pancreatic cancer) cells; test: MTT cell growth inhibition, solid tumor cells; type: cell-based, human; conditions: Homo sapiens, PANC-1, 72 h, MTT
Excerpt: as §4
as §3, with “human solid tumor” for “leukemia”, “DMEM High Glucose” for “a RPMI-1640”, “serum. The plate was placed in a carbon dioxide cell incubator (5% CO2) at 37° C. and incubated for 24 hours.” for “serum.”, “added with” for “adding the”, “concentration” for “concentrations the next day”, “incubated” for “incubating”

[8] = tested on: CNE (nasopharyngeal carcinoma) cells; test: MTT cell growth inhibition, solid tumor cells; type: cell-based, human; conditions: Homo sapiens, CNE, 72 h, MTT
Excerpt: as §4
as §3, with “human solid tumor” for “leukemia”, “DMEM High Glucose” for “a RPMI-1640”, “serum. The plate was placed in a carbon dioxide cell incubator (5% CO2) at 37° C. and incubated for 24 hours.” for “serum.”, “added with” for “adding the”, “concentration” for “concentrations the next day”, “incubated” for “incubating”

[9] = tested on: SK-OV-3 (ovarian cancer) cells; test: MTT cell growth inhibition, solid tumor cells; type: cell-based, human; conditions: Homo sapiens, SK-OV-3, 72 h, MTT
Excerpt: as §4
as §3, with “human solid tumor” for “leukemia”, “DMEM High Glucose” for “a RPMI-1640”, “serum. The plate was placed in a carbon dioxide cell incubator (5% CO2) at 37° C. and incubated for 24 hours.” for “serum.”, “added with” for “adding the”, “concentration” for “concentrations the next day”, “incubated” for “incubating”

[10] = tested on: PC-3 (prostate cancer) cells; test: MTT cell growth inhibition, solid tumor cells; type: cell-based, human; conditions: Homo sapiens, PC-3, 72 h, MTT
Excerpt: as §4
as §3, with “human solid tumor” for “leukemia”, “DMEM High Glucose” for “a RPMI-1640”, “serum. The plate was placed in a carbon dioxide cell incubator (5% CO2) at 37° C. and incubated for 24 hours.” for “serum.”, “added with” for “adding the”, “concentration” for “concentrations the next day”, “incubated” for “incubating”

[11] = tested on: MGC-803 (human gastric cancer) cells; test: MTT cell growth inhibition, solid tumor cells; type: cell-based; conditions: MGC-803, 72 h, MTT
Excerpt: as §4
as §3, with “human solid tumor” for “leukemia”, “DMEM High Glucose” for “a RPMI-1640”, “serum. The plate was placed in a carbon dioxide cell incubator (5% CO2) at 37° C. and incubated for 24 hours.” for “serum.”, “added with” for “adding the”, “concentration” for “concentrations the next day”, “incubated” for “incubating”

[12] = tested on: Hep G2 (human liver cancer) cells; test: MTT cell growth inhibition, solid tumor cells; type: cell-based; conditions: Homo sapiens, HepG2, Hep G2, 72 h, MTT
Excerpt: as §4
as §3, with “human solid tumor” for “leukemia”, “DMEM High Glucose” for “a RPMI-1640”, “serum. The plate was placed in a carbon dioxide cell incubator (5% CO2) at 37° C. and incubated for 24 hours.” for “serum.”, “added with” for “adding the”, “concentration” for “concentrations the next day”, “incubated” for “incubating”

[13] = tested on: U87-MG (malignant glioma) cells; test: MTT cell growth inhibition, solid tumor cells; type: cell-based; conditions: Homo sapiens, U-87 MG, U87-MG, 72 h, MTT
Excerpt: as §4
as §3, with “human solid tumor” for “leukemia”, “DMEM High Glucose” for “a RPMI-1640”, “serum. The plate was placed in a carbon dioxide cell incubator (5% CO2) at 37° C. and incubated for 24 hours.” for “serum.”, “added with” for “adding the”, “concentration” for “concentrations the next day”, “incubated” for “incubating”

[14] = tested on: Becap-37 (human breast cancer) cells; test: MTT cell growth inhibition, solid tumor cells; type: cell-based; conditions: Homo sapiens, Becap-37, 72 h, MTT
Excerpt: as §4
as §3, with “human solid tumor” for “leukemia”, “DMEM High Glucose” for “a RPMI-1640”, “serum. The plate was placed in a carbon dioxide cell incubator (5% CO2) at 37° C. and incubated for 24 hours.” for “serum.”, “added with” for “adding the”, “concentration” for “concentrations the next day”, “incubated” for “incubating”

[15] = tested on: A549 (human lung cancer) cells; test: MTT cell growth inhibition, solid tumor cells; type: cell-based; conditions: Homo sapiens, A549, 72 h, MTT
Excerpt: as §4
as §3, with “human solid tumor” for “leukemia”, “DMEM High Glucose” for “a RPMI-1640”, “serum. The plate was placed in a carbon dioxide cell incubator (5% CO2) at 37° C. and incubated for 24 hours.” for “serum.”, “added with” for “adding the”, “concentration” for “concentrations the next day”, “incubated” for “incubating”

[16] = tested on: Hep-2 (laryngeal carcinoma) cells; test: MTT cell growth inhibition, solid tumor cells; type: cell-based; conditions: Homo sapiens, Hep-2, 72 h, MTT
Excerpt: as §4
as §3, with “human solid tumor” for “leukemia”, “DMEM High Glucose” for “a RPMI-1640”, “serum. The plate was placed in a carbon dioxide cell incubator (5% CO2) at 37° C. and incubated for 24 hours.” for “serum.”, “added with” for “adding the”, “concentration” for “concentrations the next day”, “incubated” for “incubating”

[17] = tested on: RKO (human colon adenocarcinoma) cells; test: MTT cell growth inhibition, solid tumor cells; type: cell-based; conditions: Homo sapiens, RKO, 72 h, MTT
Excerpt: as §4
as §3, with “human solid tumor” for “leukemia”, “DMEM High Glucose” for “a RPMI-1640”, “serum. The plate was placed in a carbon dioxide cell incubator (5% CO2) at 37° C. and incubated for 24 hours.” for “serum.”, “added with” for “adding the”, “concentration” for “concentrations the next day”, “incubated” for “incubating”

[18] = tested on: MG-63 (osteosarcoma) cells; test: MTT cell growth inhibition, solid tumor cells; type: cell-based; conditions: Homo sapiens, MG-63, 72 h, MTT
Excerpt: as §4
as §3, with “human solid tumor” for “leukemia”, “DMEM High Glucose” for “a RPMI-1640”, “serum. The plate was placed in a carbon dioxide cell incubator (5% CO2) at 37° C. and incubated for 24 hours.” for “serum.”, “added with” for “adding the”, “concentration” for “concentrations the next day”, “incubated” for “incubating”

[19] = tested on: Hela (human cervical cancer) cells; test: MTT cell growth inhibition, solid tumor cells; type: cell-based
Excerpt: as §4
as §3, with “human solid tumor” for “leukemia”, “DMEM High Glucose” for “a RPMI-1640”, “serum. The plate was placed in a carbon dioxide cell incubator (5% CO2) at 37° C. and incubated for 24 hours.” for “serum.”, “added with” for “adding the”, “concentration” for “concentrations the next day”, “incubated” for “incubating”

With `COc1cc(OC)cc(C(=O)Oc2c(OC)cc3c4c2Oc2cc5c(cc2OC)CCN(C)[C@H]5Cc2ccc(cc2)Oc2cc(ccc2OC)C[C@@H]4N(C)CC3)c1` [BS-FC-311] the “antitumor activity compared with that of fangchinoline” value (tumor) was “significantly superior”, the IC50 ([1]; read-out: IC50) was 0.51 µg/mL (≈ 0.66 µM) and the IC90 ([1]; read-out: IC90) was 0.98 µg/mL (≈ 1.27 µM). For the same compound, the IC50 ([2]; read-out: IC50) was 1.2 µg/mL (≈ 1.55 µM), the IC90 ([2]; read-out: IC90) was 2 µg/mL (≈ 2.59 µM) and the IC50 ([3]; Homo sapiens, Kasumi-1, 72 h, MTT, read-out: IC50) was 0.57 µg/mL (≈ 0.737 µM). The IC90 ([3]; Homo sapiens, Kasumi-1, 72 h, MTT, read-out: IC90) was 1.85 µg/mL (≈ 2.39 µM), the “anti-Kasumi-1 activity increase over fangchinoline” value ([3]; relative to fangchinoline, Table 1) was ~2 fold and the IC50 ([4]; read-out: IC50) was 0.22 µg/mL (≈ 0.285 µM). It also gave an IC90 ([4]; read-out: IC90) of 0.96 µg/mL (≈ 1.24 µM), an IC50 ([5]; read-out: IC50) of 0.48 µg/mL (≈ 0.621 µM) and an IC90 ([5]; read-out: IC90) of 2.83 µg/mL (≈ 3.66 µM). For the same compound, the IC50 ([6]; read-out: IC50) was 1.95 µg/mL (≈ 2.52 µM), the IC90 ([6]; read-out: IC90) was 7.37 µg/mL (≈ 9.54 µM) and the IC50 ([7]; read-out: IC50) was 2.95 µg/mL (≈ 3.82 µM). It also gave an IC90 ([7]; read-out: IC90) of 4.8 µg/mL (≈ 6.21 µM), an IC50 ([8]; read-out: IC50) of 1.83 µg/mL (≈ 2.37 µM) and an IC90 ([8]; read-out: IC90) of 5.04 µg/mL (≈ 6.52 µM). It also gave an IC50 ([9]; read-out: IC50) of 2.87 µg/mL (≈ 3.71 µM), an IC90 ([9]; read-out: IC90) of 3.96 µg/mL (≈ 5.12 µM) and an IC50 ([10]; read-out: IC50) of 3.08 µg/mL (≈ 3.99 µM). It also gave an IC90 ([10]; read-out: IC90) of 8.39 µg/mL (≈ 10.9 µM), an IC50 ([11]; read-out: IC50) of 1.4 µg/mL (≈ 1.81 µM) and an IC90 ([11]; read-out: IC90) of 4.79 µg/mL (≈ 6.2 µM). The IC50 ([12]; read-out: IC50) was 1.4 µg/mL (≈ 1.81 µM), the IC90 ([12]; read-out: IC90) was 2.76 µg/mL (≈ 3.57 µM) and the IC50 ([13]; read-out: IC50) was 1.25 µg/mL (≈ 1.62 µM). For the same compound, the IC90 ([13]; read-out: IC90) was 3.8 µg/mL (≈ 4.92 µM), the IC50 ([14]; read-out: IC50) was 1.53 µg/mL (≈ 1.98 µM) and the IC90 ([14]; read-out: IC90) was 3.03 µg/mL (≈ 3.92 µM). It also gave an IC50 ([15]; read-out: IC50) of 1.36 µg/mL (≈ 1.76 µM), an IC90 ([15]; read-out: IC90) of 4.38 µg/mL (≈ 5.67 µM) and an IC50 ([16]; read-out: IC50) of 1.64 µg/mL (≈ 2.12 µM). For the same compound, the IC90 ([16]; read-out: IC90) was 4.85 µg/mL (≈ 6.28 µM), the IC50 ([17]; read-out: IC50) was 1.32 µg/mL (≈ 1.71 µM) and the IC90 ([17]; read-out: IC90) was 3.24 µg/mL (≈ 4.19 µM). It also gave an IC50 ([18]; read-out: IC50) of 2 µg/mL (≈ 2.59 µM), an IC90 ([18]; read-out: IC90) of 4.37 µg/mL (≈ 5.65 µM) and an IC50 ([19]; Homo sapiens, Hela, 72 h, MTT, read-out: IC50) of 0.5 µg/mL (≈ 0.647 µM). The IC90 ([19]; Homo sapiens, Hela, 72 h, MTT, read-out: IC90) was 2.89 µg/mL (≈ 3.74 µM) and the “anti-Hela activity increase over fangchinoline” value ([19]; relative to fangchinoline, Table 2) was ~4 fold.
